Test results reported in patent publication US20240132511A1, “TREATMENTS OF PRADER-WILLI SYNDROME” (Neuren Pharmaceuticals Limited, priority 2021, published 2024).

SMILES	melting point [°C]
C[C@@]12CCCN1C(=O)C1(CCCCC1)NC2=O [Cyclic cyclohexyl-G-2-MeP, (8aS)-Methyl-spiro[cyclohexane-1,3(4H)-tetrahydropyrrolo[1,2-a]pyrazine]-1,4(2H)-dione]	174 to 177
C[C@@]12CCCN1C(=O)C1(CCCC1)NC2=O [Cyclic cyclopentyl-G-2-MeP, (8aS)-Methyl-spiro[cyclopentane-1,3(4H)-tetrahydropyrrolo[1,2-a]pyrazine]-1,4(2H)-dione]	160 to 163
